# Test results from patent US11672811B2, “Materials and methods for suppressing and/or treating bone related diseases and symptoms” (Indiana University Research and Technology Corporation, priority 2017, dated 2023).
# Square brackets hold non-standard residues; d marks the D form. Peptide text beside a SMILES is read from it. * marks the point of attachment. ξ: configuration not given here. Cbz = O=C(OCc1ccccc1)*; ξL = CC(C)CC(N)C(=O)O
# B1: iPTH: daily injections of PTH (parathyroid hormone) (protein, UniProt P01270 32-115, looked up)
# Parathyroid hormone: SVSEIQLMHNLGKHLNSMERVEWLRKKLQDVHNFVALGAPLAPRDAGSQRPRKKEDNVLVESHEKSLGEADKADVNVLTKAKSQ
# modifications: Parathyroid hormone
# Columns and labels:
# [1] = test system: normal 4-month old female mice; experiment: In vivo administration of BT-GSI-XII to normal mice: BMD, microCT, serum bone markers, osteoclasts/osteoblasts, bone cytokine and osteoblast marker mRNA
# Description: Daily injections of PTH (iPTH) are thought to cause bone anabolism by increasing osteoblast number and function. However, iPTH can also increase bone resorption, which can limit bone gain. iPTH activates Notch signaling in osteocytes; and bone-targeted Notch inhibition using a γ-secretase inhibitor (GSI) conjugated to an alendronate-modified bone-targeting molecule (BT-GSI) decreases Notch signaling in bone, and reduces CTX (−40%) while preserving bone formation, leading to increases in BMD (4-7%) and cancellous bone volume (BV/TV; 30%).
# [2] = test system: normal 4-month old female mice; experiment: In vivo administration of BT-GSI-XII to normal mice: tolerability, skin, gut toxicity biomarker
# Notch target genes = experiment: Notch target gene mRNA in bone, brain and gut of BT-GSI treated mice; format: in vivo; conditions: compared to vehicle-treated mice
# Description: FIG. 2A. Graphs illustrating the effect on Notch target genes.
# FIG. 2B. Graphs illustrating the effect on Notch target genes.
# (§1) Referring now to FIG. 1A, the control unconjugated GSI decreased Notch target gene expression (Hes1) in 5TGM1 myeloma cells, but BT-GSI-XII had no effect in vitro. […] (FIG. 1E).
# [3] = test system: Notch target gene expression (Hes1); experiment: Notch target gene expression in 5TGM1 myeloma cells in vitro; format: cell-based; conditions: for inhibition of Notch target gene expression: compounds pre-incubated at low pH to mimic acidic conditions in resorption sites, myeloma cells; for Notch target gene expression (Hes1-Hey1): in vitro, 5TGM1 myeloma cells, not pre-incubated
# Description: FIG. 1A. Graphs illustrating the effect on Notch target gene expression. In vitro, the control unconjugated GSI decreased Notch target gene expression (Hes1-Hey1) but BT-GSI-XII had no effect.
# FIG. 1B. A graph illustrating the effect on Notch target gene expression.
# as §1
# 4-mo-old mice = experiment: Co-administration of BT-GSI with daily PTH injections (iPTH) in mice: bone mass, resorption and formation; format: in vivo
# Experimental: (§2) To investigate whether a combination of iPTH (anabolic) and BT-GSI (anti-catabolic) increases bone mass to a higher extent than either agent alone, BT-GSI (5 mg/kg, 3×/wk) or saline was co-administered with iPTH (100 ng/g/day) or vehicle for 2 wks to 4-mo-old mice (n=10/group).
# (§3) No changes were found in M-Csf expression. Additionally, unconjugated GSI reduced Rankl-induced osteoclast differentiation in vitro with an EC50˜0.1 μM (FIG. 12D). Further, the bone-targeting molecule alone required a dose 10 times higher than GSI to decreased osteoclastogenesis. Referring now to FIG. 13, co-administration of BT-GSI decreased iPTH-induced elevated serum P1NP (e.g., about 30% decrease); however, the co-administration of BT-GSI maintained the iPTH-induced elevated bone formation rate (20%) and osteoblast number/surface (20%) in cancellous bone (FIG. 13B-C). Further, mice receiving iPTH alone or combined with BT-GSI induced elevated mRNA levels of Alp1, Runx2, Bglap, and Wnt target genes, and reduced mRNA level of Sost in bone (FIG. 13 D-E).
# Hes1/5 expression = experiment: Ex vivo whole bone organ cultures, Hes1/5 expression; format: cell-based; conditions: compounds non-pre-incubated
# Description: FIG. 1C. A schematic drawing illustrating an exemplary ex vivo system.
# as §1
# [4] = test system: Notch target genes Hes1/5/7 and Hey1/L; experiment: Co-administration of BT-GSI with iPTH in mice: Notch target gene expression in bone, brain, gut; format: in vivo; conditions: 2 wks
# Experimental: as §2
# [5] = test system: Rankl-induced osteoclast differentiation; experiment: Rankl-induced osteoclast differentiation in vitro; format: cell-based; conditions: read-out: EC50, reduction of Rankl-induced osteoclast differentiation
# Experimental: as §3
# [6] = serum, 5 μg/g, 3×wk, 2 weeks, mice
# [7] = 5 μg/g, 3×wk, 2 weeks, normal 4-month old female mice
# [8] = BT-GSI 5 mg/kg 3×/wk co-administered with iPTH, 2 wks
# [9] = BT-GSI co-administered with iPTH
# [10] = BT-GSI co-administered with iPTH, cancellous bone
# [11] = single agent (iPTH 100 ng/g/day or BT-GSI 5 mg/kg 3×/wk)
molecule,measurement,setting,value
CC[C@H](C)[C@H](NC(=O)OCc1ccccc1)C(=O)NC(/C=N/N(C)CCCC(=O)NC(P(=O)(O)O)P(=O)(O)O)CC(C)C (stereo partly drawn) [BT-GSI-XII],higher femoral BMD compared to control mice,"[1]; 5 μg/g, 3×wk, 2 weeks, mice",4%
same,higher spinal BMD compared to control mice,"[1]; 5 μg/g, 3×wk, 2 weeks, mice",7%
same,higher total BMD compared to control mice,"[1]; 5 μg/g, 3×wk, 2 weeks, mice",3%
same,increased cancellous bone volume (BV/TV) compared to vehicle-treated mice,[1]; microCT analysis,25%
same,increased trabecular thickness compared to vehicle-treated mice,[1]; microCT analysis,10%
same,increased cancellous bone volume (BV/TV) compared to vehicle-treated mice,"[1]; microCT analysis, listed as BT-GSI",30%
same,circulating levels of the bone formation marker P1NP,[1]; [6],did not affect
same,"decrease of serum CTX, a marker of bone resorption",[1]; [6],40%
same,increases in BMD,"[1]; summary statement, sites not named",4-7%
same,bone formation and mineral apposition rates,[1]; treated mice,remained unchanged
same,decrease in the bone surface covered by osteoclasts compared to control mice,[1]; treated mice,50%
same,number of osteoblasts,[1]; treated mice,remained unchanged
same,Opg mRNA expression in bone,[1]; treated mice vs vehicle,increased
same,Rankl/Opg ratio in bone,[1]; treated mice vs vehicle,decreasing
same,Opg mRNA expression in bone,"[1]; treated mice vs vehicle, listed as BT-GSI",upregulated
same,"expression of osteoblast markers, including Wnt target genes and the osteocyte-derived Sost/Sclerostin","[1]; treated mice, bone",remained unchanged
same,bone formation and mineral apposition rates,"[1]; treated mice, listed as BT-GSI",preserving
same,skin issues,[2]; [7],no skin issues were observed
same,tolerability,[2]; [7],well tolerated
same,"Apsidin expression in the gut, a biomarker of gastrointestinal toxicity","[2]; treated mice vs vehicle, gut",did not increase
same,Notch target gene mRNA expression in brain or gut,"Notch target genes; brain, gut",not in brain or gut
same,"Notch target gene (Hey2, Hes5, Hes7, HeyL) mRNA expression in bone",Notch target genes; whole bone preparations,decreases
same,inhibition of Notch target gene expression,[3],equal inhibition
same,Notch target gene expression (Hes1-Hey1),[3],no effect
same,increase in femoral BMD,4-mo-old mice; [8],17%
same,increase in spinal BMD,4-mo-old mice; [8],7%
same,increase in total BMD,4-mo-old mice; [8],10%
same,additional increase in cancellous BV/TV (L4 and distal femur) compared to the iPTH-induced increase,4-mo-old mice; [9],25%
same,additional increase in trabecular thickness compared to the iPTH-induced increase,4-mo-old mice; [9],25%
same,decrease of iPTH-induced elevated serum P1NP,4-mo-old mice; [9],about 30%
same,effect on iPTH-induced increase in cortical bone area,4-mo-old mice; [9],did not alter
same,iPTH-induced elevated Rankl/Opg expression ratio in bone,4-mo-old mice; [9],remained unchanged
same,serum CTX level,4-mo-old mice; [9],less than those exhibited in control mice
same,iPTH-induced elevated bone formation rate,4-mo-old mice; [10],maintained
same,iPTH-induced elevated osteoblast number/surface,4-mo-old mice; [10],maintained
same,osteoclast number/surface level,4-mo-old mice; [10],less than those exhibited in control mice
same,mRNA level of Sost in bone,4-mo-old mice; iPTH combined with BT-GSI,reduced
same,"mRNA levels of Alp1, Runx2, Bglap, and Wnt target genes in bone",4-mo-old mice; iPTH combined with BT-GSI,elevated
same,Hes1/5 expression,Hes1/5 expression,similarly decreased
same,iPTH-induced elevated expression of Hes1/5/7 and Hey1/L in bone,[4]; BT-GSI 5 mg/kg 3×/wk co-administered with iPTH 100 ng/g/day,decreased the iPTH-induced elevated expression of Hes1/5/7 and Hey1/L to a level comparable to the control mice
same,expression of Notch target genes in brain or gut,[4]; [11],remained unchanged
same,expression of Notch target genes in brain or gut,[4]; the combination of iPTH and BT-GSI,remained unchanged
"CC[C@H](C)[C@H](NC(=O)OCc1ccccc1)C(=O)N[C@H](C=O)CC(C)C [GSI-XII, reference compound] (Cbz-Ile-Leu-aldehyde)",EC50,[5],~100 nM
same,Notch target gene expression (Hes1-Hey1),[3],decreased
"CC[C@H](C)[C@H](NC(=O)OCc1ccccc1)C(=O)NC(C=O)CC(C)C (stereo partly drawn) [GSI-XII, reference compound] (Cbz-Ile-[ξL]-aldehyde)",inhibition of Notch target gene expression,[3],equal inhibition
same,Hes1/5 expression,Hes1/5 expression,similarly decreased
B1,increase in femoral BMD,"4-mo-old mice; iPTH 100 ng/g/day alone, 2 wks",13%
same,increase in total BMD,"4-mo-old mice; iPTH 100 ng/g/day alone, 2 wks",7%
same,spinal BMD change,"4-mo-old mice; iPTH 100 ng/g/day alone, 2 wks",0%
same,iPTH-induced elevated Rankl/Opg expression ratio in bone,4-mo-old mice; iPTH alone,1.5 fold
same,iPTH-induced elevated serum CTX,4-mo-old mice; iPTH alone,30%
same,iPTH-induced increase in cortical bone area,4-mo-old mice; iPTH alone,8%
same,mRNA level of Sost in bone,4-mo-old mice; iPTH alone,reduced
same,"mRNA levels of Alp1, Runx2, Bglap, and Wnt target genes in bone",4-mo-old mice; iPTH alone,elevated
same,serum P1NP,4-mo-old mice; iPTH alone,elevated
same,iPTH-induced elevated bone formation rate,"4-mo-old mice; iPTH alone, cancellous bone",20%
same,iPTH-induced elevated osteoblast number/surface,"4-mo-old mice; iPTH alone, cancellous bone",20%
same,iPTH-induced elevated osteoclast number/surface,"4-mo-old mice; iPTH alone, cancellous bone",25%
same,expression of the Notch target genes Hes1/5/7 and Hey1/L in bone,[4]; iPTH 100 ng/g/day alone,increased
same,expression of Notch target genes in brain or gut,[4]; [11],remained unchanged
